According to patent publication US4229435A, “Preparation of blood fraction” (priority 1978, dated 1980):

How the values were obtained:
Type in all cases: biochemical
F V = biological target: T1, F V (Homo sapiens, UniProt P12259); experiment: Coagulation factor V activity in plasma after reducing agent + iodoacetic acid; conditions: 5 min 37° C., then iodoacetic acid
T1 construct: from tissue; host or cells: human citrated blood plasma
Description: (§1) Human blood with anti-coagulating agent (9 parts blood+1 part 3.8% trisodium citrate) is centrifuged and the following tests with plasma were carried out:
(§2) The plasma is divided into 8 ml portions, which are preheated at 37° C. for 5 min. DTT is added in different concentrations, see table 1 below, and is incubated for 5 min. at 37° C. Then iodoacetic acid, 3 mol per mol DTT, is added, and incubation takes place for 15 min. at 37° C. The plasma samples are distributed in portions of about 0.2 ml and are immediately frozen at -70° C. Testing of different coagulation factors is made in known manner.
(§3) The plasma is divided into 8 ml portions, which are preheated at 37° C. for 5 min. DTE is added in different concentrations (see table 2), and is incubated for 5 minutes at 37° C. Then, iodoacetic acid (3 mol per mol DTE) is added and incubation is carried out for 15 minutes at 37° C. The plasma samples are distributed in portions of about 0.2 ml and are immediately frozen at -70° C. Testing of different coagulation factors is made in a manner known per se.
as §3, with “minutes. Lipoic acid” for “min. DTE”, “3),” for “2),”, “lipoic acid)” for “DTE)”
as §3, with “minutes. Mercaptoethanol” for “min. DTE”, “4),” for “2),”, “mercaptoethanol)” for “DTE)”
as §3, with “minutes. Potassium borohydride” for “min. DTE”, “5,” for “2),”, “potassium borohydride)” for “DTE)”

F II = biological target: T2, F II (Homo sapiens, UniProt P00734); experiment: Coagulation factor II activity in plasma after reducing agent + iodoacetic acid; conditions: 5 min 37° C., then iodoacetic acid
T2 construct: from tissue; host or cells: human citrated blood plasma
Description: as §1, §2, §3
as §3, with “minutes. Lipoic acid” for “min. DTE”, “3),” for “2),”, “lipoic acid)” for “DTE)”
as §3, with “minutes. Mercaptoethanol” for “min. DTE”, “4),” for “2),”, “mercaptoethanol)” for “DTE)”
as §3, with “minutes. Potassium borohydride” for “min. DTE”, “5,” for “2),”, “potassium borohydride)” for “DTE)”

F X = biological target: T3, F X (Homo sapiens, UniProt P00742); experiment: Coagulation factor X activity in plasma after reducing agent + iodoacetic acid; conditions: 5 min 37° C., then iodoacetic acid
T3 construct: from tissue; host or cells: human citrated blood plasma
T3 sequence (P00742 235-488 limits assumed): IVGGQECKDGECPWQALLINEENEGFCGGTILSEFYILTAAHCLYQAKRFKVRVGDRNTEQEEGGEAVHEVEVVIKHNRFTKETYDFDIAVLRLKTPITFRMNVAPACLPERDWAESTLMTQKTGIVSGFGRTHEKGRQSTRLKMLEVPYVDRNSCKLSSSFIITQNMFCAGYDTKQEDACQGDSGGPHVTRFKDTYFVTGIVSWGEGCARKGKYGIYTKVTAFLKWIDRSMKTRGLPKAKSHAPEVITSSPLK
T3 sequence (P00742 41-179 limits assumed): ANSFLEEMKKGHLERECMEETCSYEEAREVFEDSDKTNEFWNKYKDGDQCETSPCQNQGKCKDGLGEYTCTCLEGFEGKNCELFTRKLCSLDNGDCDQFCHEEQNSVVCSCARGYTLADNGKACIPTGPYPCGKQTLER
Description: as §1, §2, §3
as §3, with “minutes. Lipoic acid” for “min. DTE”, “3),” for “2),”, “lipoic acid)” for “DTE)”
as §3, with “minutes. Mercaptoethanol” for “min. DTE”, “4),” for “2),”, “mercaptoethanol)” for “DTE)”
as §3, with “minutes. Potassium borohydride” for “min. DTE”, “5,” for “2),”, “potassium borohydride)” for “DTE)”

F IX = biological target: T4, F IX (Homo sapiens, UniProt P00740); experiment: Coagulation factor IX activity in plasma after reducing agent + iodoacetic acid; conditions: 5 min 37° C., then iodoacetic acid
T4 construct: from tissue; host or cells: human citrated blood plasma
T4 sequence (P00740 47-461): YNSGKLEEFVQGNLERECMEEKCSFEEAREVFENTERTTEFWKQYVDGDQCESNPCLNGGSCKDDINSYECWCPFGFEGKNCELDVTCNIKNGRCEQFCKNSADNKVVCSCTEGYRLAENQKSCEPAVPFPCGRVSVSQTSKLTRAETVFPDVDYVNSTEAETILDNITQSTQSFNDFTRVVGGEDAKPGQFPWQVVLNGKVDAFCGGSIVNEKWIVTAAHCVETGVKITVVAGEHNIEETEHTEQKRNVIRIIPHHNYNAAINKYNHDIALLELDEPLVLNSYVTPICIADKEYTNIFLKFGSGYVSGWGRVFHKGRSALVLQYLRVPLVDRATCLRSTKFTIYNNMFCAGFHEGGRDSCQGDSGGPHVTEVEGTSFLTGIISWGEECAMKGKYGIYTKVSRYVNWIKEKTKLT
Description: as §1, §2, §3
as §3, with “minutes. Lipoic acid” for “min. DTE”, “3),” for “2),”, “lipoic acid)” for “DTE)”
as §3, with “minutes. Mercaptoethanol” for “min. DTE”, “4),” for “2),”, “mercaptoethanol)” for “DTE)”
as §3, with “minutes. Potassium borohydride” for “min. DTE”, “5,” for “2),”, “potassium borohydride)” for “DTE)”

F XI = biological target: T5, F XI (Homo sapiens, UniProt P03951); experiment: Coagulation factor XI activity in plasma after reducing agent + iodoacetic acid; conditions: 5 min 37° C., then iodoacetic acid
T5 construct: from tissue; host or cells: human citrated blood plasma
T5 sequence (P03951 19-625): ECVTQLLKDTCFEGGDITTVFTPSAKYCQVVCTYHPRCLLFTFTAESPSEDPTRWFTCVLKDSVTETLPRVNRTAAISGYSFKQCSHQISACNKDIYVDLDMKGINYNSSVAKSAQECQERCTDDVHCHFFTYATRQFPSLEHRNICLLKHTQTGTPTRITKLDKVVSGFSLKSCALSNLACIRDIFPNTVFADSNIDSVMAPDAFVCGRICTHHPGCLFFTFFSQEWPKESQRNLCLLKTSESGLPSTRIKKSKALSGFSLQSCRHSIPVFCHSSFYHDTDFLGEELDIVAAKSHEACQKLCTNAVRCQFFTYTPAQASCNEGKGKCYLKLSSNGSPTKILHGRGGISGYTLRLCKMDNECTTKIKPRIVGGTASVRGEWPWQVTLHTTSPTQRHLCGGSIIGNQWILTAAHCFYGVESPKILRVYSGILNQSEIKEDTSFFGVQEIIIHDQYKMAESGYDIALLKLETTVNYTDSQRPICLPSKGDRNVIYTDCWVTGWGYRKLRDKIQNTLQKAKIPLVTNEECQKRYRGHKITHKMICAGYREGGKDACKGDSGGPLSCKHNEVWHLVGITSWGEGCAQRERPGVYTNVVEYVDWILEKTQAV
Description: as §1, §2, §3
as §3, with “minutes. Lipoic acid” for “min. DTE”, “3),” for “2),”, “lipoic acid)” for “DTE)”
as §3, with “minutes. Mercaptoethanol” for “min. DTE”, “4),” for “2),”, “mercaptoethanol)” for “DTE)”
as §3, with “minutes. Potassium borohydride” for “min. DTE”, “5,” for “2),”, “potassium borohydride)” for “DTE)”

[1] = tested on: coagulation factors VII, IX, X, XI and XII; experiment: Effect of reducing substance added to blood or plasma on coagulation factors; conditions: addition to blood
factor IX = experiment: Selective decrease of coagulation activity at low temperature (Example 7); conditions: 0.2 mg DTT per ml plasma, 22° C.
Description: By addition of reducing agent, e.g. 0.2 mg DTT per ml plasma, at a low temperature, e.g. 22° C., it is possible to selectively influence the decrease of the coagulation activity in the different factors.

[2] = 0.1 mg reducing agent/ml plasma (sample C)
[3] = human, 0.1 mg reducing agent/ml plasma (sample C)
[4] = human, 0.6 mg reducing agent/ml plasma
[5] = human, Table 1 sample D, 0.1 mg DTT/ml plasma
[6] = plasma + 0.14 mg reducing agent
[7] = plasma + 0.28 mg reducing agent

T1 sequence (P12259 29-2224): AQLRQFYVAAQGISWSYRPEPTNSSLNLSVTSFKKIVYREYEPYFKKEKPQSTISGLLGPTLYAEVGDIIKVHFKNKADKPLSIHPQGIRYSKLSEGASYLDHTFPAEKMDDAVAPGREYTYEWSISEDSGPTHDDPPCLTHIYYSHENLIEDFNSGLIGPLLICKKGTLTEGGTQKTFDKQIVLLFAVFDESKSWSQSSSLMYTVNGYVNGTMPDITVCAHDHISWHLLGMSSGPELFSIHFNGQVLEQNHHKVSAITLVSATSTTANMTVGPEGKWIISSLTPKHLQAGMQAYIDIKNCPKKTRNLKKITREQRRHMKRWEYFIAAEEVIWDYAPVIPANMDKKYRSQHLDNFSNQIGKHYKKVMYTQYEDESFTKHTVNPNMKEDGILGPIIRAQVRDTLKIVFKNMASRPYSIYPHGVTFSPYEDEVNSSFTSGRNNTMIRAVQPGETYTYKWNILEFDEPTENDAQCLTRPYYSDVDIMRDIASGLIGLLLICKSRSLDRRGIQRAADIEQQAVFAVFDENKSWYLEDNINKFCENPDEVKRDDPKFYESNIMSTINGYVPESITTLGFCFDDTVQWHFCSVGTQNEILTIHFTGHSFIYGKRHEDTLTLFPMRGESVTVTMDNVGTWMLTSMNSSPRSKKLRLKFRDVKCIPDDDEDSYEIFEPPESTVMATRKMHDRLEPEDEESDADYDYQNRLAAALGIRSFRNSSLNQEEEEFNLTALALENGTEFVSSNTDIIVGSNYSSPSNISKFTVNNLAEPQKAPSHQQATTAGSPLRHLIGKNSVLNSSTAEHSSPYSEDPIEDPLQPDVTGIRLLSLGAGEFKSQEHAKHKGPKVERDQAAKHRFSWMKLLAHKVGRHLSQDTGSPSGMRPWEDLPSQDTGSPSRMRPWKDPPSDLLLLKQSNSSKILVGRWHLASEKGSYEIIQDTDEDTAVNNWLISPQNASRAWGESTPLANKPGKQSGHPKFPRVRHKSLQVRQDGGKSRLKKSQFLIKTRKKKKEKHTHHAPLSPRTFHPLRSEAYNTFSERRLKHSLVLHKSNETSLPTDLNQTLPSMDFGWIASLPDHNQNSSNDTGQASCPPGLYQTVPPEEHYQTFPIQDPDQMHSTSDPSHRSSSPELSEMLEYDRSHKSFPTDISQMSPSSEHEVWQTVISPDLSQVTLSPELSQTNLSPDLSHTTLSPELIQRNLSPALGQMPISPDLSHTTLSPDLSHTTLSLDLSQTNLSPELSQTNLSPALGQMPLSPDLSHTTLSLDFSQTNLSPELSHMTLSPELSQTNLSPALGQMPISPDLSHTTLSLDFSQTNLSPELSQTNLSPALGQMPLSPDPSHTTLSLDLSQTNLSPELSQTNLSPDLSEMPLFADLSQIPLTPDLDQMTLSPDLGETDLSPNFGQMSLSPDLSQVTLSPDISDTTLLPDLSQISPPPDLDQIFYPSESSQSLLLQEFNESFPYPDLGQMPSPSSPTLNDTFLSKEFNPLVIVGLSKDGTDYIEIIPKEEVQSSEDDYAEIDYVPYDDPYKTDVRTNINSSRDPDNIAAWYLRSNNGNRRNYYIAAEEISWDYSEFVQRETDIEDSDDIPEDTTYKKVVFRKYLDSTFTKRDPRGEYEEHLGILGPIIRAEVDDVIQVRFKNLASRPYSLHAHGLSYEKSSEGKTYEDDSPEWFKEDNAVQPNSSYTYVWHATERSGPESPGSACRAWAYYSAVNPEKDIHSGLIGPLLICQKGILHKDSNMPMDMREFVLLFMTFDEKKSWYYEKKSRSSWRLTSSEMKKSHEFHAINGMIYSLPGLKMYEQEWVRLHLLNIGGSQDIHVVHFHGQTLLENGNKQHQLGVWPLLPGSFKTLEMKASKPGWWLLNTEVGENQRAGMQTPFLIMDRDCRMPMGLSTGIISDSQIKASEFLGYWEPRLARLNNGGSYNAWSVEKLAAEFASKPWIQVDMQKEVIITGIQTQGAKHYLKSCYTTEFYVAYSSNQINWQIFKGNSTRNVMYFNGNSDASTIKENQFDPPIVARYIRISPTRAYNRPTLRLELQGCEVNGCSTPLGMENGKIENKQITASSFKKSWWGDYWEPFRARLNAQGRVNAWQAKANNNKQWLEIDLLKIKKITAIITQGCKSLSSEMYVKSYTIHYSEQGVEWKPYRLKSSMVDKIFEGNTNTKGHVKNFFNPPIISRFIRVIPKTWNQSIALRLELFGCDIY

Row | SMILES | Coagulation factor F V (F V; [2]) | Coagulation factor F V (F V; plasma + 0.2 mg reducing agent) | Coagulation factor F V (F V; plasma + 0.4 mg reducing agent) | activity at 100 µg/mL (F II; [3]) [%] | Coagulation factor F II (F II; plasma + 0.2 mg reducing agent) | Coagulation factor F II (F II; plasma + 0.4 mg reducing agent) | activity at 100 µg/mL (F X; [3]) [%] | Coagulation factor F X (F X; plasma + 0.2 mg reducing agent) | Coagulation factor F X (F X; plasma + 0.4 mg reducing agent) | activity at 100 µg/mL (F IX; [3]) [%] | Coagulation factor F IX (F IX; plasma + 0.2 mg reducing agent) | Coagulation factor F IX (F IX; plasma + 0.4 mg reducing agent) | activity at 100 µg/mL (F XI; [3]) [%] | Coagulation factor F XI (F XI; plasma + 0.2 mg reducing agent) | Coagulation factor F XI (F XI; plasma + 0.4 mg reducing agent) | also measured
1 | O[C@H](CS)[C@@H](O)CS [DTE, dithioerythritol] | 99 % of control | 99 % of control | 90 % of control | 90 | 66 % of control | 35 % of control | 56 | 11 % of control | 2 % of control | 61 | 28 % of control | 19 % of control | 66 | 3 % of control | 0 % of control | 
2 | [BH4-].[K+] [KBH4, potassium borohydride] |  |  |  |  |  |  |  |  |  |  |  |  |  |  |  | Coagulation factor F V (F V; [6]): 74 % of control; Coagulation factor F V (F V; [7]): 93 % of control; Coagulation factor F II (F II; [6]): 92 % of control; Coagulation factor F II (F II; [7]): 96 % of control; Coagulation factor F X (F X; [6]): 86 % of control; Coagulation factor F X (F X; [7]): 68 % of control; Coagulation factor F IX (F IX; [6]): 77 % of control; Coagulation factor F IX (F IX; [7]): 71 % of control; Coagulation factor F XI (F XI; [6]): 94 % of control; Coagulation factor F XI (F XI; [7]): 107 % of control
3 | OCCS [mercaptoethanol] |  | 61 % of control | 84 % of control |  | 89 % of control | 74 % of control |  | 75 % of control | 37 % of control |  | 33 % of control | 35 % of control |  | 74 % of control | 62 % of control | 

Further lines, with some results ahead:

Row | Coagulation factor F V (F V; [2]) | Coagulation factor F V (F V; plasma + 0.2 mg reducing agent) | Coagulation factor F V (F V; plasma + 0.4 mg reducing agent) | activity at 100 µg/mL (F II; [3]) [%] | Coagulation factor F II (F II; plasma + 0.2 mg reducing agent) | Coagulation factor F II (F II; plasma + 0.4 mg reducing agent) | activity at 100 µg/mL (F X; [3]) [%] | Coagulation factor F X (F X; plasma + 0.2 mg reducing agent) | Coagulation factor F X (F X; plasma + 0.4 mg reducing agent) | activity at 100 µg/mL (F IX; [3]) [%] | Coagulation factor F IX (F IX; plasma + 0.2 mg reducing agent) | Coagulation factor F IX (F IX; plasma + 0.4 mg reducing agent) | activity at 100 µg/mL (F XI; [3]) [%] | Coagulation factor F XI (F XI; plasma + 0.2 mg reducing agent) | Coagulation factor F XI (F XI; plasma + 0.4 mg reducing agent) | SMILES | also measured
4 | 94 % of control |  | 85 % of control | 101 |  | 41 % of control | 59 |  | 0 % of control | 129 |  | 8 % of control | 47 |  | 0 % of control | O[C@H](CS)[C@H](O)CS [DTT, dithiothreitol] | Coagulation factor F V (F V; 0.6 mg reducing agent/ml plasma): 90 % of control; Coagulation factor F V (F V; Table 1 sample D, 0.1 mg DTT/ml plasma): 90 % of control; activity at 600 µg/mL (F II; [4]): 33%; activity at 100 µg/mL (F II; [5]): 69%; activity at 600 µg/mL (F X; [4]): 0%; activity at 100 µg/mL (F X; [5]): 6%; activity at 600 µg/mL (F IX; [4]): 0%; activity at 100 µg/mL (F IX; [5]): 16%; content of coagulation factors VII, IX, X, XI and XII in the resulting plasma [1]: reduces the content of the coagulation factors VII, IX, X, XI and XII to a large extent; activity at 600 µg/mL (F XI; [4]): 0%; activity at 100 µg/mL (F XI; [5]): 9%; activity of factor IX compared with factor X (factor IX): the activity of factor IX is not influenced in as high a degree as the activity of factor X
5 | 100 % of control | 91 % of control | 215 % of control | 100 | 103 % of control | 103 % of control | 40 | 26 % of control | 32 % of control | 58 | 52 % of control | 58 % of control | 67 | 32 % of control | 39 % of control | O=C(O)CCCCC1CCSS1 (stereo not drawn) [lipoic acid] | 
